Data taken from patent publication US20070128217A1 (priority 2003, published 2007).

Legend:
[1] = system: antibodies in sera from SARS patients (sera 1a, 1b, 2, 6, 37, 62, London, SARS-yellow, SARS-green); format: binding, human; design: Binding of serum 6 to linear peptides of protein X1 of SARS-CoV Urbani / Binding of serum 37 to linear peptides of protein X1 of SARS-CoV Urbani / Binding of serum 6 to looped/cyclic peptide (PEPSCAN-ELISA) / Binding of serum 37 to looped/cyclic peptide (PEPSCAN-ELISA) / Binding of serum 37 to looped/cyclic peptides of protein X1 of SARS-CoV Urbani / Binding of serum 6 to linear peptides of protein X2 / Binding of serum 37 to linear peptides of protein X2 / Binding of serum 37 to looped/cyclic peptides of protein X2 of SARS-CoV Urbani / Binding of serum 6 to linear peptides of protein M of SARS-CoV Urbani / Binding of serum 37 to linear peptides of protein M of SARS-CoV Urbani / Binding of serum 6 to looped/cyclic peptides of protein M of SARS-CoV Urbani / Binding of serum 37 to looped/cyclic peptides of protein M of SARS-CoV Urbani / Binding of serum 6 to linear peptides of protein X3 of SARS-CoV Urbani / Binding of serum 37 to linear peptides of protein X3 of SARS-CoV Urbani / Binding of serum 37 to looped/cyclic peptides of protein X3 of SARS-CoV Urbani / Binding of serum 6 to linear peptides of protein X4 of SARS-CoV Urbani / Binding of serum 37 to linear peptides of protein X4 of SARS-CoV Urbani / Binding of serum 37 to looped/cyclic peptides of protein X4 of SARS-CoV Urbani / Binding of serum 6 to linear peptides of protein X5 of SARS-CoV Urbani / Binding of serum 37 to linear peptides of protein X5 of SARS-CoV Urbani / Binding of serum 37 to looped/cyclic peptides of protein X5 of SARS-CoV Urbani / Binding of serum 6 to linear peptides of protein N of SARS-CoV Urbani / Binding of serum 37 to linear peptides of protein N of SARS-CoV Urbani / Binding of serum 6 to linear peptide (PEPSCAN-ELISA) / Binding of serum 1a to looped/cyclic peptides of protein N of SARS-CoV Urbani / Binding of serum 1b to looped/cyclic peptides of protein N of SARS-CoV Urbani / Binding of serum 2 to looped/cyclic peptides of protein N of SARS-CoV Urbani / Binding of serum 6 to looped/cyclic peptides of protein N of SARS-CoV Urbani / Binding of serum 37 to looped/cyclic peptides of protein N of SARS-CoV Urbani / Binding of serum 62 to looped/cyclic peptides of protein N of SARS-CoV Urbani / Binding of serum London to looped/cyclic peptides of protein N of SARS-CoV Urbani / Binding of serum SARS-green to looped/cyclic peptides of protein N of SARS-CoV Urbani: unit not given here
[2] = system: control sera (pooled serum of ten healthy LUMC hospital workers; commercial negative donor pooled serum from the Dutch bloodbank); format: binding, human; design: Binding of Control serum LUMC to linear peptides / Binding of Control serum Blood-bank to linear peptides / Binding of Control serum LUMC to looped peptides / Binding of Control Serum Blood-Bank to Looped peptides / Binding of Control serum LUMC to linear peptides of the protein M of SARS-CoV Urbani / Binding of Control serum Blood-bank to linear peptides of the protein M of SARS-CoV Urbani / Binding of Control serum LUMC to looped peptides of the protein M of SARS-CoV Urbani / Binding of Control Serum Blood-Bank to Looped peptides of the protein M of SARS-CoV Urbani: unit not given here
[3] = system: rabbit serum obtained by immunizing a rabbit with the SARS-CoV strain Frankfurt 1; format: binding; design: Binding of a rabbit serum to linear peptides / Binding of a rabbit serum to looped peptides / Rabbit serum linear peptides / Rabbit serum looped peptides / Binding of a rabbit serum to linear peptides of protein N of SARS-CoV Urbani (Rabbit serum linear peptides) / Binding of a rabbit serum to looped/cyclic peptides of protein N of SARS-CoV Urbani (Rabbit serum looped peptides): unit not given here
[4] = system: recombinant human anti-SARS-CoV antibody 03-018; format: binding; design: Binding of antibody 03-018 to linear peptides of the N protein of SARS-CoV Urbani / Binding of antibody 03-018 to looped/cyclic peptides of the N protein of SARS-CoV Urbani: unit not given here

Row | Sequence | Binding of serum 1a to linear peptides of protein N of SARS-CoV Urbani [1] | Binding of serum 1a to looped/cyclic peptides of protein N of SARS-CoV Urbani [1] | Binding of serum 1b to linear peptides of protein N of SARS-CoV Urbani [1] | Binding of serum 1b to looped/cyclic peptides of protein N of SARS-CoV Urbani [1] | Binding of serum 2 to linear peptides of protein N of SARS-CoV Urbani [1] | Binding of serum 2 to looped/cyclic peptides of protein N of SARS-CoV Urbani [1] | Binding of serum 6 to linear peptides of protein N of SARS-CoV Urbani [1] | Binding of serum 6 to looped/cyclic peptides of protein N of SARS-CoV Urbani [1] | Binding of serum 37 to linear peptides of protein N of SARS-CoV Urbani [1] | Binding of serum 37 to looped/cyclic peptides of protein N of SARS-CoV Urbani [1] | Binding of serum 62 to linear peptides of protein N of SARS-CoV Urbani [1] | Binding of serum 62 to looped/cyclic peptides of protein N of SARS-CoV Urbani [1] | Binding of serum London to linear peptides of protein N of SARS-CoV Urbani [1] | Binding of serum London to looped/cyclic peptides of protein N of SARS-CoV Urbani [1] | Binding of serum SARS-green to linear peptides of protein N of SARS-CoV Urbani [1] | Binding of serum SARS-green to looped/cyclic peptides of protein N of SARS-CoV Urbani [1] | Binding of serum SARS-yellow to linear peptides of protein N of SARS-CoV Urbani [1] | Binding of serum SARS-yellow to looped/cyclic peptides of protein N of SARS-CoV Urbani [1] | Binding of a rabbit serum to linear peptides of protein N of SARS-CoV Urbani (Rabbit serum linear peptides) [3] | Binding of a rabbit serum to looped/cyclic peptides of protein N of SARS-CoV Urbani (Rabbit serum looped peptides) [3] | also measured
1 | PRWYFYYLGTGPEAS | 0.3 | 0.4 | 0.2 | 0.3 | 0.2 | 0.5 | 0.2 | 0.3 | 0.9 | 1.0 | 0.7 | 0.8 | 0.5 | 0.5 | 0.5 | 0.9 | 0.6 | 0.8 | 0.2 | 0.6 | Binding of Control Serum Blood-Bank to Looped peptides [2]: 0.7; Binding of Control serum Blood-bank to linear peptides [2]: 0.7; Binding of Control serum LUMC to linear peptides [2]: 0.6; Binding of Control serum LUMC to looped peptides [2]: 0.7; Binding of antibody 03-018 to linear peptides of the N protein of SARS-CoV Urbani [4]: 0.1; Binding of antibody 03-018 to looped/cyclic peptides of the N protein of SARS-CoV Urbani [4]: 0.2
2 | PSGTWLTYHGAIKLD | 0.3 | 0.2 | 0.2 | 0.1 | 0.2 | 0.2 | 0.2 | 0.1 | 1.0 | 0.4 | 0.8 | 0.3 | 0.7 | 0.3 | 0.6 | 0.1 | 0.7 | 0.1 | 0.1 | 0.0 | Control Serum Blood-Bank Looped peptides [2]: 0.4; Control serum Blood-bank linear peptides [2]: 0.7; Control serum LUMC linear peptides [2]: 0.6; Control serum LUMC looped peptides [2]: 0.4; Binding of antibody 03-018 to linear peptides of the N protein of SARS-CoV Urbani [4]: 0.1; Binding of antibody 03-018 to looped/cyclic peptides of the N protein of SARS-CoV Urbani [4]: 0.2
3 | PYGANKEGIVWVATE | 0.3 | 0.4 | 0.2 | 0.3 | 0.2 | 0.5 | 0.2 | 0.3 | 1.0 | 0.9 | 0.8 | 0.9 | 0.7 | 0.5 | 0.8 | 0.8 | 0.6 | 0.7 | 0.2 | 0.2 | Binding of Control Serum Blood-Bank to Looped peptides [2]: 0.6; Binding of Control serum Blood-bank to linear peptides [2]: 0.7; Binding of Control serum LUMC to linear peptides [2]: 0.7; Binding of Control serum LUMC to looped peptides [2]: 0.7; Binding of antibody 03-018 to linear peptides of the N protein of SARS-CoV Urbani [4]: 0.1; Binding of antibody 03-018 to looped/cyclic peptides of the N protein of SARS-CoV Urbani [4]: 0.2
